Source: patent publication US20250270173A1, “PYRIDINE DERIVATIVES FOR TREATING PSYCHIATRIC DISORDERS” (GILGAMESH PHARMACEUTICALS, INC., priority 2022, published 2025)
Several values for one entry are separate records, joined by “and”; a condition that tells them apart may be missing. Equal entries are not always repeated. Where two headings read alike, the source gives them in different places.

Assays:
[1] = target: T1, 5-HT2A receptor (Homo sapiens (Human), UniProt P28223); assay: FLIPR Ca2+ flux functional assay at 5-HT2A (HEK293); conditions: for 5-HT2A % Act @ Max Conc.: Ca2+ flux, HEK293, at max concentration
[2] = target: 5-HT2B receptor (Homo sapiens (Human), UniProt P41595); assay: FLIPR Ca2+ flux functional assay at 5-HT2B (HEK293); conditions: for 5-HT2B % Act @ Max Conc.: HEK293, at max concentration
5-HT2B receptor, sequence (P41595 whole entry, looked up): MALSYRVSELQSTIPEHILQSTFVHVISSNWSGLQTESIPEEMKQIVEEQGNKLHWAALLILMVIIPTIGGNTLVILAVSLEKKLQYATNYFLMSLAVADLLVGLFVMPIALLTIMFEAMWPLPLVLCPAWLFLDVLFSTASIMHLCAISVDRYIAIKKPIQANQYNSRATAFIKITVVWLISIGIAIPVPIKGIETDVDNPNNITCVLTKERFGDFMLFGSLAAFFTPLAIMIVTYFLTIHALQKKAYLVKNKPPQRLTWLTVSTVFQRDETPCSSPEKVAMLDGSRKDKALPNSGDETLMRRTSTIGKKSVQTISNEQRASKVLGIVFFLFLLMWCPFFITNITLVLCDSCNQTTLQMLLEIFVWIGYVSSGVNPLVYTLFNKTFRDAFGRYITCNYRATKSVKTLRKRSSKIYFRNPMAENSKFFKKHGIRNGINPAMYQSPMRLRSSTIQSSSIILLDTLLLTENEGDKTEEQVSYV

[3] = target: T1, 5-HT2A receptor; assay: 5-HT2A receptor radioligand binding with [3H]ketanserin; conditions: read-out: Ki at 5-HT2A Receptor (nM) ([3H]ketanserin); HEK293 stable cell line, 1 nM [3H]ketanserin, 1 h, 25 °C
[4] = target: human 5-HT2C receptor (Homo sapiens (Human), UniProt P28335); assay: FLIPR Ca2+ flux functional assay at 5-HT2C (Eurofins DiscoverX); assay type: cell-based; conditions: Ca2+ flux, human 5-HT2C; for 5-HT2C % Act @ Max Conc.: at max concentration; for EC50: read-out: 5-HT2C EC50
human 5-HT2C receptor, sequence (P28335 whole entry, looked up): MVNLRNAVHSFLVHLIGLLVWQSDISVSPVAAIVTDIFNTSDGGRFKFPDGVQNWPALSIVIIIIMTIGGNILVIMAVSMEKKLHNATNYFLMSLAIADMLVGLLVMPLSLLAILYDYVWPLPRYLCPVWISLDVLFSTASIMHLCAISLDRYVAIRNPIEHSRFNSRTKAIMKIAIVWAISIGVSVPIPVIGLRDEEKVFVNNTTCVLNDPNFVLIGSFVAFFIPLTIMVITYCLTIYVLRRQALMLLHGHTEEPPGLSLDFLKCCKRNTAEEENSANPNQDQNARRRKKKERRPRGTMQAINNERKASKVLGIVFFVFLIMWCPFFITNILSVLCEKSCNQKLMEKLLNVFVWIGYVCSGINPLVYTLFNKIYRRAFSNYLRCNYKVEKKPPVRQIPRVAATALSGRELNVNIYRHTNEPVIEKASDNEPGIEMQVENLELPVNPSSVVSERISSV
Procedure: Functional Assays at 5-HT2C Receptors. […] Probenecid was prepared fresh. Cells were loaded with dye prior to testing and incubated at 37° C. for 30-60 minutes. After dye loading, cells were removed from the incubator and 10 μL HBSS/20 mM Hepes was added. 3× vehicle was included in the assay buffer. Cells were incubated for 30 mins at room temperature in the dark to equilibrate plate temperature. Intermediate dilution of sample stocks was performed to generate 4× sample in assay buffer. Compound agonist activity was measured on a FLIPR Tetra (MDS). Calcium mobilization was monitored for 2 minutes and 10 μL 4× sample in HBSS/20 mM Hepes was added to the cells 5 seconds into the assay.

[5] = test system: C57BL/6 mice; assay: Manual head twitch response (HTR) assay in mice; assay type: in vivo; conditions: SC; for ED50: 20 min observation
Procedure: Agonists of the 5-HT2A receptor are well known to induce this effect in rodents and the potency of this HTR is correlated with hallucinogenic potency in humans.
(§1) Animals. Adult male C57BL/6 mice aged 8-10 weeks (body weight 20-25 g) were used in these experiments. Animals were housed under controlled temperatures and 12-hour light/dark cycles (lights on between 07:00-19:00 h), with ad libitum food and water. The protocol was approved by the Institutional Animal Care and Use Committee at the study site. This study was carried out in strict accordance with the recommendations in the Guide for the Care and Use of Laboratory Animals of the National Institutes of Health. All efforts were made to minimize suffering.
Drugs and Drug administration. DOI was commercially obtained. All other compounds were synthesized as described above. All drugs were administered subcutaneously (SC) dissolved in saline vehicle (or saline acidified with 1-2 molar equivalents HCl to form the salt in situ for freebase compounds) and at a volume of 10 mL/kg. Drugs were administered at 4 or 5 doses per compound, using n=6 animals/group. Doses were calculated on the basis of the freebase form, except for DOT, which was calculated based on the HCl salt.
Procedure. Mice were administered one dose of the drug (or vehicle) SC and immediately placed into a small open field for behavioral observation. Animals were observed continuously for 20 mins and the number of head twitches (HTs) were counted by an observer blind to the treatment condition.
(§2) Statistical Analysis. Analysis was performed using GraphPad Prism 9. Dose-response curves were fit via non-linear regression using the Gaussian 2020 function in Prism in order to determine the ED50 and Emax for each compound.

[6] = target: 5-HT1A receptor (Homo sapiens (Human), UniProt P08908); assay: FLIPR Ca2+ flux functional assay at 5-HT1A (CHO cells); conditions: for 5-HT1A % Act @ Max Conc.: Ca2+ flux, CHO cells, at max concentration
[7] = test system: C57BL/6 mice; assay: Automated (video tracking) head twitch response (HTR) assay in mice; assay type: in vivo; conditions: SC; for Most Efficacious Dose; mg/kg: dose giving the most HTR
Procedure: Disclosed compounds were tested for their ability to induce a head twitch response (HTR) in mice using an automated video tracking procedure, with the results summarized in Table 5. […] The phenyl Compound 44 was substantially more efficacious at inducing HTR than its pyridine counterpart Compound 29, in agreement with the generally lower maximal efficacy of the disclosed pyridine compounds for signaling through 5-HT2A receptors.
as §1
Drugs and Drug Administration. […] was commercially obtained. Disclosed compounds were synthesized as described above. They were administered subcutaneously (SC) dissolved in saline (or saline acidified with 1-2 molar equivalents HCl to form the salt in situ for freebase compounds) at a volume of 10 mL/kg. Five doses were tested, with N=5-8 animals/group. Doses were calculated on the basis of the freebase, except for DOI, which was calculated based on the HCl salt.
Procedure. Mice were administered one dose of the drug and immediately placed into a small open field for behavioral observation. High-speed video of animals' behavior was captured continuously for 20 min. Video recordings were imported into an image processing software, which detects multiple points of interest on each animal's body, including the left and right ear. HTR events were defined as periodic deviations of ear locations from temporally averaged ear locations. Predefined thresholds for magnitude and frequency of location deviations were used to filter […] events from random head movements. The method was validated by comparing detected events with manual (human) observations and found to have an accuracy >95%. The total number of HTR events counted during the 20-min recording were determined for each animal at each dose.
as §2

CCCCCc1cc(OC)c(CC(N)CC)nc1OC (stereo not drawn) [Compound 1, 1-(3,6-dimethoxy-5-pentylpyridin-2-yl)butan-2-amine]
EC50 [1]: 0.115 µM | 5-HT2A % Act @ Max Conc. [1]: 25% and 25.3% | 5-HT2B % Act @ Max Conc. ([2]; Ca2+ flux): 0.18% | Ki [3]: 40 nM | 5-HT2C % Act @ Max Conc. [4]: 44.38% | EC50 [4]: 5.47 µM | ED50 ([5]; Mus musculus, 20 min, read-out: ED50): 0.897 mg/kg | Emax (HTR counts/20 min) [5]: 18.78 HTR counts/20 min | EC50 [6]: 20.2 µM | 5-HT1A % Act @ Max Conc. [6]: 188%

CCC(N)Cc1nc(OC)c(Cl)cc1OC (stereo not drawn) [Compound 18, 1-(5-chloro-3,6-dimethoxypyridin-2-yl)butan-2-amine]
EC50 [1]: 0.37 µM | 5-HT2A % Act @ Max Conc. [1]: 70.92% | EC50 [2]: > 10 µM | 5-HT2B % Act @ Max Conc. ([2]; Ca2+ flux): 2.75% | Ki [3]: 1200 nM | 5-HT2C % Act @ Max Conc. [4]: 36.76% | EC50 [4]: 2.25 µM | # HTR/20 min at Most Efficacious Dose [7]: 33.12 HTR/20 min | Most Efficacious Dose; mg/kg [7]: (10) mg/kg | EC50 [6]: > 100 µM | 5-HT1A % Act @ Max Conc. [6]: 1.33%

COc1cc(CC(C)N)c(OC)cc1I (stereo not drawn) [DOI, reference compound]
5-HT2A % Act @ Max Conc. [1]: 106% | 5-HT2B % Act @ Max Conc. ([2]; Ca2+ flux): 86.3% | EC50 ([2]; read-out: 5-HT2B EC50, Ca2+ flux, HEK293): 0.00488 µM | 5-HT2C % Act @ Max Conc. [4]: 92.6% | EC50 [4]: 0.000818 µM | Emax (HTR counts/20 min) [5]: 35.7 HTR counts/20 min | ED50 [5]: 0.428 mg/kg | Emax (HTR counts/20 min) [7]: 82.02 HTR counts/20 min | ED50 ([7]; 20 min recording): 0.531 mg/kg | # HTR/20 min at Most Efficacious Dose [7]: 81.5 HTR/20 min | Most Efficacious Dose; mg/kg [7]: (3.2) mg/kg | 5-HT1A % Act @ Max Conc. [6]: −2.47%
